Laboratory results as given in PMC10146558, “Highly Cytotoxic Copper(II) Mixed-Ligand Quinolinonato Complexes: Pharmacokinetic Properties and Interactions with Drug Metabolizing Cytochromes P450” (Pharmaceutics, 2023).

Columns and labels:
CYP3A4/5 = CYP3A4/5 activity (testosterone 6β-hydroxylation) in human liver microsomes
Procedure: For each enzyme assay, the preliminary experiments to determine Michaelis constant (Km) and limiting velocity (Vmax) were performed to calculate the time of incubation (the specified time for which the reaction is still linear) and the values of substrate concentration (in the range corresponding to the value of Km). The amount of human liver microsomes (HLM; expressed as the amount of CYP in pmol and the concentration of HLM protein in mg/mL in the reaction vessel) in the reaction was determined using previously established protocols [40].
The reaction mixtures were buffered by 0.1 M potassium phosphate buffer (pH 7.4) and contained a NADPH-generating system consisting of the isocitrate dehydrogenase (6 U/mL), NADP^+ (0.5 mM), isocitric acid (4 mM), and MgSO4 (5 mM). The final concentration levels of complexes were obtained by diluting a 10 mM solution with dimethyl sulfoxide (DMSO). It is known that DMSO can in some cases inhibit P450; the following measures were thus applied: (a) control samples containing organic solvent without the tested compounds were prepared and used as references; (b) DMSO levels were maintained below 0.1% to minimise the inhibition. Inhibition experiments were performed using five concentration levels of the tested compounds in the range of 10–100 µM. The maximum concentration was chosen so that in the case of inhibition, it would be possible to determine the inhibitory effect of the complexes and characterise them by determining the IC50 value. Additionally, an inhibitor-free control was used as a reference. Incubations were executed in two independent batches, and the samples were prepared and measured in triplicate at 37 °C.
The type of model was selected on the basis of the Lineweaver–Burk and Dixon plots. The values of IC50 were obtained by analysing the plot of the percentage of activity remaining after inhibition versus the logarithm of the inhibitor concentration using the GraphPad Prism 6 software (La Jolla, CA, USA).

[1] = test system: human liver microsomal cytochrome P450s
Procedure: (§1) The cuvette contained microsomes diluted to final concentration of CYP 1 µM in 50 mM potassium phosphate buffer (pH 7.4). The tested compounds were dissolved in the same buffer, and their concentrations in the experiments ranged from 0.002 to 33.310 µM. The UV-Visible spectra were recorded at room temperature by repetitive scanning between 300 and 700 nm using Varian 500 UV/VIS spectrophotometer (Agilent Technologies, Wakefield, MA, USA). Changes of absorbance in the range of the Soret’s region (380–450 nm) were plotted against the concentration of the studied compounds. Data were analysed using GraphPad Prism 6 software (La Jolla, CA, USA).

CYP2C19 = target: T1, CYP2C19 (Homo sapiens, UniProt P33261); assay: CYP2C19 activity ((S)-mephenytoin 4′-hydroxylation) in human liver microsomes; type: biochemical; settings: free ligand, up to 100 μM
T1 construct: Cryopreserved pooled human liver microsomes were obtained from Xenotech; tissue Xenotech (Lenexa, KS, USA); host or cells: pooled human liver microsomes
T1 sequence (P33261 whole entry): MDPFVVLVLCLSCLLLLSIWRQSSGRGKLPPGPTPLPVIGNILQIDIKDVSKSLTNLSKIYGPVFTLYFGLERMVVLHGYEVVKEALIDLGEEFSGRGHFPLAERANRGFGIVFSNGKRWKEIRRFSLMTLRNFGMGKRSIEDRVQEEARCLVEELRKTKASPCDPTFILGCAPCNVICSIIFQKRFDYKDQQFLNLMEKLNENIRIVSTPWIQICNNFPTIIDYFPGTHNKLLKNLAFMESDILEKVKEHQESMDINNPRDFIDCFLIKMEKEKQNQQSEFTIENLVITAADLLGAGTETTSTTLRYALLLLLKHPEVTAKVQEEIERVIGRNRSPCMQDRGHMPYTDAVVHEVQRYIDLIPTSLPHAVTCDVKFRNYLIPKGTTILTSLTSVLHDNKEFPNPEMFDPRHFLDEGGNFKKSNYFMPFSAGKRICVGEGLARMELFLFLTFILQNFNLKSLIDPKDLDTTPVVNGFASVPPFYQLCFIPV
Procedure: (§2) For each enzyme assay, the preliminary experiments to determine Michaelis constant (Km) and limiting velocity (Vmax) were performed to calculate the time of incubation (the specified time for which the reaction is still linear) and the values of substrate concentration (in the range corresponding to the value of Km).
(§3) The reaction mixtures were buffered by 0.1 M potassium phosphate buffer (pH 7.4) and contained a NADPH-generating system consisting of the isocitrate dehydrogenase (6 U/mL), NADP^+ (0.5 mM), isocitric acid (4 mM), and MgSO4 (5 mM). The final concentration levels of complexes were obtained by diluting a 10 mM solution with dimethyl sulfoxide (DMSO). It is known that DMSO can in some cases inhibit P450; the following measures were thus applied: (a) control samples containing organic solvent without the tested compounds were prepared and used as references; (b) DMSO levels were maintained below 0.1% to minimise the inhibition. Inhibition experiments were performed using five concentration levels of the tested compounds in the range of 10–100 µM. The maximum concentration was chosen so that in the case of inhibition, it would be possible to determine the inhibitory effect of the complexes and characterise them by determining the IC50 value. Additionally, an inhibitor-free control was used as a reference. Incubations were executed in two independent batches, and the samples were prepared and measured in triplicate at 37 °C. Analyses of the metabolites formed from the specific substrates were performed by HPLC using the Prominence system (Shimadzu, Kyoto, Japan) equipped with a LiChroCART 250-4 LiChrospher 100 RP-18 column, Chromolith® HighResolution RP-18 end-capped column (Merck, Darmstadt, Germany), or Kinetex Biphenyl column (Phenomenex, Torrace, CA, USA).
(§4) The apparent Ki values were determined by additional measurements using substrate concentrations corresponding to 1/2 Km, Km, 2 Km, and 4 Km in the case of inhibition. The type of model was selected on the basis of the Lineweaver–Burk and Dixon plots. The values of IC50 were obtained by analysing the plot of the percentage of activity remaining after inhibition versus the logarithm of the inhibitor concentration using the GraphPad Prism 6 software (La Jolla, CA, USA).

cytochrome P450 = test system: cytochrome P450; design: method as in PMID 26911729; settings: ref [50]; cited from earlier work
[2] = test system: human liver microsomal cytochrome P450s; assay: Difference spectra (UV-visible spectral titration) with human liver microsomes; settings: read-out: Ks (spectral binding constant); spectral differences at 386 nm, CYP 1 µM, pH 7.4, room temperature
Procedure: as §1

CYP3A4 = CYP3A4 (Homo sapiens, UniProt P08684); assay: CYP3A4 activity (midazolam 1′-hydroxylation) in human liver microsomes; settings: Dixon and Lineweaver–Burk plots
CYP3A4, sequence (P08684 2-503): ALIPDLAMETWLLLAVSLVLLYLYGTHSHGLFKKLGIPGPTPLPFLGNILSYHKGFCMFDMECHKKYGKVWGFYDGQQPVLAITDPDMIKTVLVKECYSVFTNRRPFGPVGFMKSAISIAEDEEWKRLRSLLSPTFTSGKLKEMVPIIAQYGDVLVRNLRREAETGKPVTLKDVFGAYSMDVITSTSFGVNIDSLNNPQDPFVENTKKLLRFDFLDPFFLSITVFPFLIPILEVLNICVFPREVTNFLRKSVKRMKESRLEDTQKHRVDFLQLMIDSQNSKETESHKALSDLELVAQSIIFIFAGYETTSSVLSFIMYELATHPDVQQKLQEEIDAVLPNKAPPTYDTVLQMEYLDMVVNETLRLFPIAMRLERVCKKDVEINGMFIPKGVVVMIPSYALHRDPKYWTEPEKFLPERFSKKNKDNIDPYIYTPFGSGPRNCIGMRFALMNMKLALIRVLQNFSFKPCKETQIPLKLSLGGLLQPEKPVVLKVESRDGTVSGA
Procedure: as §2, §3, §4

O=c1c(O)c(-c2ccccc2)[nH]c2ccccc12 [Hqui, 2-phenyl-3-hydroxy-1H-quinolin-4-one, reference compound]
CYP3A4/5 activity remaining (testosterone 6β-hydroxylation), % of basal activity (CYP3A4/5; at 100 μM): ca. 60%
Changes in difference spectra on interaction with microsomal CYPs [1]: no significant changes
Decrease in CYP2C19 activity (CYP2C19): 66%

CC(=O)CC(C)=O.Cc1ccnc2c1ccc1c(C)ccnc12.O=[N+]([O-])[O-].O=[N+]([O-])[O-].[Cu+2] [[Cu(acac)(4,7-dimethyl-1,10-phenanthroline)(H2O)](NO3)2]
IC50 (cytochrome P450): ~10 µM

O.O.O.O=[N+]([O-])[O-].O=[N+]([O-])[O-].[Cu+2] [copper(II) nitrate trihydrate, reference compound]
Ki (CYP3A4/5; read-out: Ki CYP3A4/5 (testosterone 6β-hydroxylation assay), Dixon and Lineweaver–Burk plots, substrate ½ Km to 4 Km): 1.56 ± 0.25 µM
Kd [2]: 9.81 ± 0.6 µM
Type of inhibition, CYP3A4 (midazolam 1′-hydroxylation) (CYP3A4): non-competitive
Ki (CYP3A4; read-out: Ki CYP3A4 (midazolam 1′-hydroxylation assay), substrate ½ Km to 4 Km): 8.25 ± 1.64 µM

Cc1cc2cccnc2c2ncccc12 [mphen, 5-methyl-1,10-phenanthroline]
Changes in difference spectra on interaction with microsomal CYPs [1]: no significant changes
